Where “and” joins values, the source holds several entries; their conditions need not be identical. Equal entries are not always repeated.
How the values were obtained:
Tyrosinase [1] = target: T1, Tyrosinase (Agaricus bisporus, UniProt O42713); test: Inhibition of mushroom tyrosinase using L-dopa as substrate preincubated for 10 mins followed by substrate addition and measured for 1 min
T1 sequence (O42713 whole entry): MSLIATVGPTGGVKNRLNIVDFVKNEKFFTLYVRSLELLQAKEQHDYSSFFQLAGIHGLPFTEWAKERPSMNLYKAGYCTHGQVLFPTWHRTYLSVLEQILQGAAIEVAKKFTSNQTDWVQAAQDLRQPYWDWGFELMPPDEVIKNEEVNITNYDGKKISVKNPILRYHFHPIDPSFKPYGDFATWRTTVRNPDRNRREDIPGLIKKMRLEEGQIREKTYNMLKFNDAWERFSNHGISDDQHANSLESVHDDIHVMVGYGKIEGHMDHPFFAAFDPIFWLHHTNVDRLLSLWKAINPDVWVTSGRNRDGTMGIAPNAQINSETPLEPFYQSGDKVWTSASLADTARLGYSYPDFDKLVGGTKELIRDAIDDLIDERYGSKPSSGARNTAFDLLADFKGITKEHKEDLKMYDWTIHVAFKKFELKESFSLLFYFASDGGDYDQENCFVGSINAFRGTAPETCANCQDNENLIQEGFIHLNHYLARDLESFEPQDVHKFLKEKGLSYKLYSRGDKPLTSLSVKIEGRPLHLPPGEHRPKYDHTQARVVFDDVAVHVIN

Tyrosinase [2] = target: T2, Tyrosinase (Mus musculus, UniProt P11344); test: Inhibition of tyrosinase in mouse B16 cells using L-DOPA as substrate preincubated for 72 hrs followed by substrate addition and measured after 30 mins; type: cell-based
T2 sequence (P11344 whole entry): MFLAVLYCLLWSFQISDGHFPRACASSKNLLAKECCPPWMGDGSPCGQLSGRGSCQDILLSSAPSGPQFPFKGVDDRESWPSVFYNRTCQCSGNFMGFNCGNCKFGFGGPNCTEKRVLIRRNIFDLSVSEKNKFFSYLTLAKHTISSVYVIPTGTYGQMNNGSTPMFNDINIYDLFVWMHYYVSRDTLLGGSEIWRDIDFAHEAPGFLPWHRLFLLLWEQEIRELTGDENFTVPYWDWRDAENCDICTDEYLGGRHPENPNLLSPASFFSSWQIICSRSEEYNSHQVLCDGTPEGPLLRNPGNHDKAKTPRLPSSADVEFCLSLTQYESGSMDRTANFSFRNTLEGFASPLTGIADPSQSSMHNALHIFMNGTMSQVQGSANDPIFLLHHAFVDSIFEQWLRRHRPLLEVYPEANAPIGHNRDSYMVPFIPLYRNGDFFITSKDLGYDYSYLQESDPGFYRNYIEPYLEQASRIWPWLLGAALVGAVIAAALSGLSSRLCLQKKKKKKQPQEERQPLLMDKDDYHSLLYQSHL

Tyrosinase [3] = target: T1, Tyrosinase; test: Inhibition of mushroom tyrosinase using L-dopa as substrate measured for 150 secs by spectrophotometric analysis
Tyrosinase [4] = target: T1, Tyrosinase; test: Inhibition of mushroom tyrosinase using L-dopa as substrate preincubated for 2 mins followed by substrate addition and measured for 5 mins by spectrophotometric analysis
Tyrosinase [5] = target: T1, Tyrosinase
Tyrosinase [6] = target: T1, Tyrosinase; test: Non-competitive inhibition of mushroom tyrosinase by Lineweaver-Burk plot analysis
Tyrosinase [7] = target: T1, Tyrosinase; test: Inhibition of mushroom tyrosinase monophenolase activity using L-tyrosine as substrate
[8] = target: T3, Tyrosinase (Agaricus bisporus) (UniProt O42713)
T3 sequence (whole entry): T1 sequence (O42713 whole entry)
Description: (§5) Reversible mixed-type inhibition of mushroom tyrosinase using L-dopa as substrate by Lineweaver-Burk plot analysis

Tyrosinase [9] = target: T1, Tyrosinase; remark: listed apart in the source
Description: as §5

Tyrosinase [10] = target: T1, Tyrosinase; test: (§1) Mixed-type inhibition of mushroom tyrosinase using L-tyrosine as substrate by Lineweaver-Burk plot analysis
[11] = target: T3, Tyrosinase (Agaricus bisporus); test: as §1
Tyrosinase [12] = target: T1, Tyrosinase; test: Inhibition of mushroom tyrosinase monophenolase activity using L-tyrosine as substrate after 10 mins by spectrophotometric analysis
[13] = target: T3, Tyrosinase (Agaricus bisporus); test: Mixed-type inhibition of mushroom tyrosinase after 10 mins by Lineweaver-Burk plot analysis
Tyrosinase [14] = target: T1, Tyrosinase; test: Inhibition of mushroom tyrosinase diphenolase activity using L-dopa as substrate after 10 mins by spectrophotometric analysis
Tyrosinase [15] = target: T1, Tyrosinase; test: Reversible inhibition of mushroom tyrosinase after 10 mins by Lineweaver-Burk plot analysis
Tyrosinase [16] = target: T1, Tyrosinase; test: Reversible competitive inhibition of mushroom tyrosinase using L-dopa as substrate preincubated for 2 mins followed by substrate addition and measured for 5 mins by Lineweaver-Burk plot analysis
Tyrosinase [17] = target: T1, Tyrosinase; test: (§2) Reversible mixed-type inhibition of mushroom tyrosinase by Lineweaver-Burk plot analysis
[18] = target: T3, Tyrosinase (Agaricus bisporus); test: as §2
Tyrosinase [19] = target: T1, Tyrosinase; test: (§3) Mixed-type inhibition of mushroom tyrosinase by Lineweaver-Burk plot analysis
[20] = target: T3, Tyrosinase (Agaricus bisporus); test: as §3
Tyrosinase [21] = target: T1, Tyrosinase; test: Non-competitive inhibition of mushroom tyrosinase using L-dopa as substrate preincubated for 5 mins followed by substrate addition and measured for 5 mins
Tyrosinase [22] = target: T1, Tyrosinase; test: (§4) Mixed-type inhibition of mushroom tyrosinase using L-dopa as substrate preincubated for 5 mins followed by substrate addition and measured for 3 mins
[23] = target: T3, Tyrosinase (Agaricus bisporus); test: as §4
Tyrosinase [24] = target: T1, Tyrosinase; test: Reversible competitive inhibition of mushroom tyrosinase after 10 mins by Lineweaver-Burk plot analysis

NC(=S)N/N=C/c1cccc(O)c1
IC50 (Tyrosinase [1]): 3900 nM

NC(=S)N/N=C/c1ccc(O)c(O)c1
IC50 (Tyrosinase [1]): > 40000 nM

COc1cc(/C=N/NC(N)=S)ccc1O
IC50 (Tyrosinase [1]): 5680 nM

CC/C(=N\N=C(\N)S)c1ccccc1
IC50 (Tyrosinase [2]): < 1000 nM

CC(=O)OCc1csc(/C=N/NC(N)=S)c1
IC50 (Tyrosinase [3]): 340 nM

CNC(=S)N/N=C(\C)c1ccc(OC)cc1O
IC50 (Tyrosinase [4]): 18000 nM

C/C(=N\NC(N)=S)c1ccco1
IC50 (Tyrosinase [5]): 824 nM

CCCCOCCOc1ccc(/C=N/NC(N)=S)cc1
IC50 (Tyrosinase [1]): 920 nM

COc1ccc(/C=N/NC(N)=S)cc1O
IC50 (Tyrosinase [1]): 4880 nM

NC(=S)N/N=C/c1ccc(OCOCCO)cc1
IC50 (Tyrosinase [1]): 370 nM

NC(=S)N/N=C/c1ccccc1Cl
Ki (Tyrosinase [6]): 1200 nM | IC50 (Tyrosinase [7]): 15400 nM | IC50 (Tyrosinase [5]): 1220 nM

C/C(=N\NC(N)=S)c1ccc[nH]1
IC50 (Tyrosinase [5]): 4150 nM

N=C(S)N/N=C/c1ccc(Oc2ccc(F)cc2)cc1
IC50 (Tyrosinase [1]): 1460 nM

NC(=S)N/N=C/c1cc(COC(=O)c2ccccc2)cs1
IC50 (Tyrosinase [3]): 68 nM

CCCCC/C(=N\NC(N)=S)c1ccccc1
IC50 (Tyrosinase [2]): < 1000 nM

CC(C)COc1ccc(/C=N/NC(N)=S)cc1
IC50 (Tyrosinase [1]): 2210 nM

NC(=S)N/N=C/c1ccc[nH]1
Kis [8]: 0.29 µM | Ki (Tyrosinase [9]): 80 nM | IC50 (Tyrosinase [5]): 3990 nM

CN(C)c1ccc(/C=N/NC(N)=S)cc1
IC50 (Tyrosinase [7]): 1540 nM | Ki (Tyrosinase [10]): 1770 nM | Kis [11]: 6.49 µM | IC50 (Tyrosinase [5]): 2020 nM

NC(=S)N/N=C/c1ccccc1O
IC50 (Tyrosinase [1]): 380 nM

COc1ccc(/C=N/NC(N)=S)cc1
IC50 (Tyrosinase [12]): 7000 nM | Kis [13]: 15.1 µM | IC50 (Tyrosinase [14]): 2620 nM | IC50 (Tyrosinase [2]): 139000 nM | IC50 (Tyrosinase [1]): 1480 nM | Ki (Tyrosinase [15]): 1470 nM

C/C(=N\NC(N)=S)c1cccs1
IC50 (Tyrosinase [5]): 1410 nM

CCC(=O)OCc1csc(/C=N/NC(N)=S)c1
IC50 (Tyrosinase [3]): 161 nM

NC(=S)N/N=C/c1cc(CO)cs1
IC50 (Tyrosinase [3]): 670 nM

CCC/C(=N\NC(N)=S)c1ccccc1
IC50 (Tyrosinase [2]): < 1000 nM

NC(=S)N/N=C/c1cc(O)cc(O)c1
IC50 (Tyrosinase [1]): > 30000 nM

CCCCCCCCCCC/C(=N\NC(N)=S)c1ccccc1
IC50 (Tyrosinase [2]): < 1000 nM

NC(=S)N/N=C/c1ccc(O)cc1O
IC50 (Tyrosinase [1]): 180 nM

NC(=S)N/N=C/c1ccc(O)cc1
IC50 (Tyrosinase [12]): 760 nM | Kis [13]: 6.79 µM | IC50 (Tyrosinase [14]): 3800 nM | IC50 (Tyrosinase [1]): 410 nM | Ki (Tyrosinase [15]): 2820 nM

COc1ccc(OC)c(/C=N/NC(N)=S)c1
IC50 (Tyrosinase [1]): > 50000 nM

CNC(=S)N/N=C(\C)c1ccc(O)cc1O
IC50 (Tyrosinase [4]): 6000 nM | Ki (Tyrosinase [16]): 5000 nM

NC(=S)N/N=C/c1ccco1
Kis [8]: 1.18 µM | Ki (Tyrosinase [9]): 600 nM | IC50 (Tyrosinase [5]): 2350 nM

CC(C)/C(=N\NC(N)=S)c1ccccc1
IC50 (Tyrosinase [2]): < 2300 nM

CCCOc1ccc(/C=N/NC(N)=S)cc1
IC50 (Tyrosinase [1]): 3030 nM

NC(=S)N/N=C/c1ccc(OCOC(CO)CO)cc1
IC50 (Tyrosinase [1]): 940 nM

CNC(=S)N/N=C(\C)c1ccccc1
IC50 (Tyrosinase [4]): 213000 nM

NC(=S)N/N=C/c1ccc(O)cc1Br
IC50 (Tyrosinase [1]): 330 nM

NC(=S)N/N=C/c1ccc(OCCO)cc1
IC50 (Tyrosinase [1]): 530 nM

CCOc1ccc(/C=N/NC(N)=S)cc1
IC50 (Tyrosinase [1]): 1920 nM

C=CCOc1ccc(/C=N/NC(N)=S)cc1
IC50 (Tyrosinase [1]): 1290 nM

NC(=S)N/N=C/c1cc(COC=O)cs1
IC50 (Tyrosinase [3]): 196 nM

CCCCCOc1ccc(/C=N/NC(N)=S)cc1
IC50 (Tyrosinase [1]): 1090 nM

NC(=S)N/N=C/C=C/c1ccccc1
Ki (Tyrosinase [17]): 4450 nM | Kis [18]: 8.85 µM

CCCC/C(=N\NC(N)=S)c1ccccc1
IC50 (Tyrosinase [2]): 1200 nM

CC(C)C/C(=N\NC(N)=S)c1ccccc1
IC50 (Tyrosinase [2]): < 1000 nM

COCCOc1ccc(/C=N/NC(N)=S)cc1
IC50 (Tyrosinase [1]): 750 nM

CNC(=S)N/N=C(\C)c1ccc(OC)cc1
IC50 (Tyrosinase [4]): 65000 nM

CCCC(=O)OCc1csc(/C=N/NC(N)=S)c1
IC50 (Tyrosinase [3]): 105 nM

NC(=S)N/N=C/c1cc(COCCO)cs1
IC50 (Tyrosinase [3]): 1420 nM

CCCCCC/C(=N\NC(N)=S)c1ccccc1
IC50 (Tyrosinase [2]): < 1000 nM

NC(=S)N/N=C/c1ccc(Cl)cc1
Ki (Tyrosinase [19]): 1250 nM | Kis [20]: 2.49 µM | IC50 (Tyrosinase [7]): 6700 nM | IC50 (Tyrosinase [5]): 1820 nM

CCOCc1csc(/C=N/NC(N)=S)c1
IC50 (Tyrosinase [3]): 490 nM

NC(=S)N/N=C/c1ccc(Oc2ccccc2)cc1
IC50 (Tyrosinase [1]): 980 nM

COCc1csc(/C=N/NC(N)=S)c1
IC50 (Tyrosinase [3]): 740 nM

NC(=S)N/N=C/c1cccs1
Kis [8]: 2.59 µM | Ki (Tyrosinase [9]): 167000 nM | IC50 (Tyrosinase [5]): 430 nM

COCCCCOc1ccc(/C=N/NC(N)=S)cc1
IC50 (Tyrosinase [1]): 410 nM

CC(C)Oc1ccc(/C=N/NC(N)=S)cc1
IC50 (Tyrosinase [1]): 900 nM

NC(=S)N/N=C/c1ccc(Br)cc1
IC50 (Tyrosinase [1]): 280 nM

NC(=S)N/N=C/c1cc(COC(=O)C2CCCCC2)cs1
IC50 (Tyrosinase [3]): 136 nM

NC(=S)N/N=C/c1ccc(-c2ccccc2)s1
IC50 (Tyrosinase [3]): 670 nM

NC(=S)N/N=C/c1cc(COC(=O)C2CCCC2)cs1
IC50 (Tyrosinase [3]): 140 nM

CCCCOc1ccc(/C=N/NC(N)=S)cc1
IC50 (Tyrosinase [1]): 1310 nM

NC(=S)N/N=C/c1ccccc1 [PHENYLTHIOSEMICARBAZONE]
IC50 (Tyrosinase [2]): 10200 nM | Ki (Tyrosinase [21]): 3700 nM | Ki (Tyrosinase [22]): 930 nM | Kis [23]: 93 µM

COCCOCCOc1ccc(/C=N/NC(N)=S)cc1
IC50 (Tyrosinase [1]): 340 nM

CNC(=S)N/N=C(\C)c1ccccc1O
IC50 (Tyrosinase [4]): 108000 nM

CN(C)c1ccc(/C=N/NC(=S)Nc2ccccc2)cc1
Ki (Tyrosinase [6]): 770 nM | IC50 (Tyrosinase [7]): 1780 nM | IC50 (Tyrosinase [5]): 800 nM

CCCCC(=O)OCc1csc(/C=N/NC(N)=S)c1
IC50 (Tyrosinase [3]): 110 nM

C/C(=N\N=C(/N)S)c1ccccc1 [PHENYL(METHYL)THIOSEMICARBAZONE]
Kis [13]: 0.83 µM and 1.4 µM | IC50 (Tyrosinase [2]): 2000 nM | Ki (Tyrosinase [24]): 380 nM

Reference: ChEMBL document CHEMBL4368896, “Thiosemicarbazones with tyrosinase inhibitory activity” (Medchemcomm, 2019)
